Test results from patent US12570661B2, “Isoform-specific aldehyde dehydrogenase inhibitors” (The Board of Trustees of the Leland Stanford Junior …, priority 2020, dated 2026).
One block for each molecule: values may come before it.

Assays:
ALDH1A3 = target: T1, ALDH1A3 (Homo sapiens, UniProt P47895); assay: ALDH1A3 enzyme kinetics assay; assay type: biochemical; conditions: enzyme kinetics assays, 1-μM dose
T1 construct: made in house
T1 sequence (P47895 1-512): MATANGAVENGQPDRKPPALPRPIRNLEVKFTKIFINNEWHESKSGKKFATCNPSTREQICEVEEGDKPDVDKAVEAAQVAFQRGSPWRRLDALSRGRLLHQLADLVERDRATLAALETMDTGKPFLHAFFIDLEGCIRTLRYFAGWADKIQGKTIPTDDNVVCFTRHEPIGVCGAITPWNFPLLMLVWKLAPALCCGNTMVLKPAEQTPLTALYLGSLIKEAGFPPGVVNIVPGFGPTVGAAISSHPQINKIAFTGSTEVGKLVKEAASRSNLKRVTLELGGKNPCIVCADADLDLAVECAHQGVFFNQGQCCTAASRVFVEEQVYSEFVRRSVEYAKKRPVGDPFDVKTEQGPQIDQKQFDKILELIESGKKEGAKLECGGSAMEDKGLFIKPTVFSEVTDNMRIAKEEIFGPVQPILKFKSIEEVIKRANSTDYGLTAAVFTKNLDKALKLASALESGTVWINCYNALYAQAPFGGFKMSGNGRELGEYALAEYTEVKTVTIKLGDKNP
Protocol: (§1) Cloning, expression, and purification of human recombinant ALDH1A1, ALDH1A3, ALDH2, ALDH3A1, ALDH3A2, ALDH4A1, ALDH5A1 and ALDH7A1 isozymes were conducted as described previously (Chen, C. H. et al. (2015) Proc. Natl. Acad. Sci. U.S.A. 112, 3074-3079). Human ALDH1A2 (Origene, SC109995) and ALDH1B1 (T. Hurley, Indiana University) plasmids were cloned into the pET-15b expression vector (Novagen, 69661-3) containing an N-terminal hexahistidine tag. The mitochondria-targeting sequence of ALDH1B1 was also removed. […] The protein concentration for each fraction was measured (500 μL elution volume was collected as one fraction and was immediately mixed with 500 μL glycerol. The protein concentration for each fraction was measured (600 nm Protein Assay Reagent; Thermo Fisher Scientific), and protein-containing fractions were diluted with an equal volume of glycerol and stored at −80° C. Samples from each step were also collected for SDS-PAGE gel analysis. For ALDH1B1 protein co-expression with chaperones, pET-15b-ALDH1B1 and GroEL/GroES (Addgene, plasmid pBB541) plasmids were co-transformed into competent BL21 E. coli cells, which were subsequently grown in 1 L of Luria-Bertani medium containing 100 μg/mL ampicillin and 50 μg/mL spectinomycin at 37° C. […]

ALDH1B1 = target: T2, ALDH1B1 (Homo sapiens, UniProt P30837); assay: ALDH1B1 enzyme kinetics assay (NADH fluorescence, acetaldehyde substrate); assay type: biochemical; design: made in house; host or cells: E. coli BL21 (optionally co-expressed with GroEL/GroES); conditions: enzyme kinetics assays against ALDH isoforms
T2 sequence (P30837 18-517): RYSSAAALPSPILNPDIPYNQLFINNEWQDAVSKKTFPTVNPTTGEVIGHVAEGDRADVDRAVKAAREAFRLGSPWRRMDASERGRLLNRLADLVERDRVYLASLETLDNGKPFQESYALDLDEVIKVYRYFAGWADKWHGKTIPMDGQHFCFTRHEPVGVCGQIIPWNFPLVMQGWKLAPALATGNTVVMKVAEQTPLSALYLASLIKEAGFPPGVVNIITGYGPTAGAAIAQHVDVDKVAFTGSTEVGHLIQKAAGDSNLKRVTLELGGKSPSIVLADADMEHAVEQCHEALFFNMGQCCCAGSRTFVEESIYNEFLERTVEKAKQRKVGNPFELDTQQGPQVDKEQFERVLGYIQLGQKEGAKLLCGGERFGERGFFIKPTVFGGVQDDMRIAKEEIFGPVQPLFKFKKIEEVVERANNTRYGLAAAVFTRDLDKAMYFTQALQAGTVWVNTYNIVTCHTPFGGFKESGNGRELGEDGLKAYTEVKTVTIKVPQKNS
Protocol: Cloning, expression, and purification of human recombinant ALDH1A1, ALDH1A3, ALDH2, ALDH3A1, ALDH3A2, ALDH4A1, ALDH5A1 and ALDH7A1 isozymes were conducted as described previously (Chen, C. H. et al. (2015) Proc. Natl. Acad. Sci. U.S.A. 112, 3074-3079). Human ALDH1A2 (Origene, SC109995) and ALDH1B1 (T. Hurley, Indiana University) plasmids were cloned into the pET-15b expression vector (Novagen, 69661-3) containing an N-terminal hexahistidine tag. The mitochondria-targeting sequence of ALDH1B1 was also removed. For protein expression without chaperones, the pET-15b based plasmids were transformed into competent BL21 E. coli cells, which were subsequently grown in 1 L of Luria-Bertani medium containing 100 μg/mL ampicillin at 37° C. Once the OD600 value reached 0.6, the culture was transferred to 16° C. and 0.5 mM isopropyl β-d-1-thiogalactopyranoside was introduced to induce protein expression overnight. The bacteria were then pelleted by centrifugation (3000×g, 4° C. for 30 rain) and harvested. 40 mL BugBuster Master Mix buffer (MilliporeSigrna) containing a protease inhibitor cocktail (cOmplete; Roche) was added, and the cells were lysed by mechanically rolling the suspension at room temperature for 25 min. The lysate was centrifuged (16000×g, 4° C. for 30 min), and the soluble fraction was collected and mixed with 2 mL of Ni-NTA Superflow resin (Qiagen). After the mixture was avowed to rock at 4° C. for 1 h, it was used to create a 10-mL gravity column, which was sequentially treated with 40 mL of wash buffer 1 (20 mM sodium phosphate, 500 mM NaCl, 1 mM DTT, 20 mM imidazole, 5% glycerol, pH 7.4) and 25 mL of wash buffer 2 (20 mM sodium phosphate, 500 mM NaCl, 1 mM DTT, 40 mM imidazole, 5% glycerol, pH 7.4). The hexahistidine-tagged protein was then recovered by treated the column with 5 mL elution buffer (20 mM sodium phosphate, 500 mM NaCl, 1 mM DTT, 400 mM imidazole, 5% glycerol, pH 7.4) and collecting 500-μL fractions. The protein concentration for each fraction was measured (500 μL elution volume was collected as one fraction and was immediately mixed with 500 μL glycerol. The protein concentration for each fraction was measured (600 nm Protein Assay Reagent; Thermo Fisher Scientific), and protein-containing fractions were diluted with an equal volume of glycerol and stored at −80° C. Samples from each step were also collected for SDS-PAGE gel analysis. For ALDH1B1 protein co-expression with chaperones, pET-15b-ALDH1B1 and GroEL/GroES (Addgene, plasmid pBB541) plasmids were co-transformed into competent BL21 E. coli cells, which were subsequently grown in 1 L of Luria-Bertani medium containing 100 μg/mL ampicillin and 50 μg/mL spectinomycin at 37° C. The hexahistidine-tagged ALDH1B1 protein was then expressed and purified as described above.
To evaluate compound activities against ALDH isoforms, reaction mixtures consisting of enzyme assay buffer (100 mM sodium phosphate, 1 mM MgCl2, pH 8.0) and 0.1% DMSO, 1 mM β-mercaptoethanol, 1 mM NAD^+, and the bacterially expressed protein were prepared in white opaque 96-well assay plates (100 μL/well, flat-bottom and non-treated; Corning Costar). 5 μg/mL ALDH enzyme was used for single-dose (1, 10, 50 μM) compound test, and 1 μg/mL ALDH enzyme was used for IC50s determination. Acetaldehyde was then added to each well to achieve an initial substrate concentration of 1 mM, and the resulting enzymatic activity was measured based on NADH fluorescence. The fluorescence signal was read over the course of 10 min on a SpectraMax M2e microplate reader (340-nm excitation and 460-nm emission; Molecular Devices) operated by SoftMax Pro software. Compound activities were normalized to a DMSO control, and dose-response inhibition curves were fitted with four-parameter non-linear regression using Prism software. […]

[1] = system: 5-FU-resistant SW480 cells; assay: Spheroid growth of 5-FU-resistant versus parental SW480 cells; assay type: cell-based, human; conditions: spheroid culture
Protocol: The parental SW480 cells were cultured in RPMI-1640 medium containing 10% FBS, 100 U/mL penicillin, 100 μg/mL streptomycin, and 1 μM 5-FU for two weeks. The 5-FU concentration in the culture medium was then increased to 5 μM and after another two weeks raised further to 10 μM. The resulting 5-FU-resistant SW480 cells were maintained in culture medium with 10 μM 5-FU.
To prepare Matrigel-coated culture plates, 96-well and 24-well plates were placed on ice and coated with 25 μL or 300 μL, respectively, of Matrigel matrix (Corning, LDEV-free) that had been thawed overnight at 4° C. The plates were then placed in a 37° C. incubator for 30 min to allow the Matrigel to solidify. […]
SW480 or HCT116 cells were seeded into regular or Matrigel-coated 96-well plates at a density of 1000 cells/well. […] Each culture was maintained for 7 days, and then cell viabilities were measured using a CellTiter-Glo 3D Cell Viability Assay kit (Promega). […] A 150-μL aliquot from each well was then transferred into a white opaque 96-well assay plate (flat-bottom and non-treated; Corning Costar) and luminescence intensities were measured with a Veritas microplate luminometer (Turner BioSystems).

ALDH2 = target: T3, ALDH2 (Homo sapiens, UniProt P05091); assay: ALDH2 enzyme kinetics assay; assay type: biochemical; conditions: 50-μM compound concentration
T3 construct: made in house
T3 sequence (P05091 18-517): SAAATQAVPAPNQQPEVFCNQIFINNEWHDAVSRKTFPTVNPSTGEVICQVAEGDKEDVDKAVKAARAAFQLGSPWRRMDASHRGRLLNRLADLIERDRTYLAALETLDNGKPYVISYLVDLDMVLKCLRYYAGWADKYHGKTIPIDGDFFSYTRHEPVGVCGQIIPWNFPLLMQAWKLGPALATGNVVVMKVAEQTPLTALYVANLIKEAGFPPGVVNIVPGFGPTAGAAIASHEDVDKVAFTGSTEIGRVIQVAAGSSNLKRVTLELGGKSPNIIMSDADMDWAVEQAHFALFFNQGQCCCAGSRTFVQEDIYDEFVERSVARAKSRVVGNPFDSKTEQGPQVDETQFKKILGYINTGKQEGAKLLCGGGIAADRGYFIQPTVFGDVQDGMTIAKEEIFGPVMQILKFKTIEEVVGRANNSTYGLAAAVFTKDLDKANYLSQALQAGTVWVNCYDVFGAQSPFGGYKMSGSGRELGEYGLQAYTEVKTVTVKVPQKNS
Protocol: as §1

NIH-3T3 cells = assay: Seahorse oxygen-consumption-rate assay (NIH3T3); assay type: cell-based, murine; conditions: Mus musculus
SW480 cells (adherent) = assay: Cell viability assay, adherent SW480 cultures; assay type: cell-based, human; conditions: Homo sapiens, SW480, 168 h; adherent culture, 7 days
Protocol: SW480 or HCT116 cells were seeded into regular or Matrigel-coated 96-well plates at a density of 1000 cells/well. The cells were cultured in the corresponding adherent or spheroid culture medium (200 μL/well) containing the designated compounds or an equivalent amount of DMSO vehicle. Each culture was maintained for 7 days, and then cell viabilities were measured using a CellTiter-Glo 3D Cell Viability Assay kit (Promega). Briefly, 100 μL of the culture medium was removed from each well and replaced with 100 μL 3D Cell Assay reagent. The cells in each well were next homogenized by vigorous pipetting, and the plate was incubated for 10 min at room temperature to stabilize the chemiluminescent signal. A 150-μL aliquot from each well was then transferred into a white opaque 96-well assay plate (flat-bottom and non-treated; Corning Costar) and luminescence intensities were measured with a Veritas microplate luminometer (Turner BioSystems).

Structure (SMILES): COc1ccccc1-n1cc(-c2ccc(-c3ccc([N+](=O)[O-])cc3)cc2)[n+]2c1CCCCC2.[Br-] [Imidazolium 10]
ALDH1A3 inhibition / isoform selectivity (in words) (ALDH1A3): inhibitor of both ALDH1B1 and ALDH1A3 | ALDH1B1 inhibition / isoform selectivity (in words) (ALDH1B1): inhibitor of both ALDH1B1 and ALDH1A3

Structure (SMILES): O=c1[nH]cc(F)c(=O)[nH]1 [Compound 5-FU, 5-fluorouracil]
loss of sensitivity of 5-FU-resistant SW480 line versus parental line [1]: 50 fold

Structure (SMILES): C#CCOc1ccc(-n2cc(-c3ccc(N=[N+]=[N-])cc3)[n+]3c2CCCCC3)cc1 [Imidazolium 3]
inhibition of ALDH2 activity (ALDH2): only partially suppressed

Continued, in another order:

GI50 (SW480 cells (adherent)): 820 nM
Structure (SMILES): c1ccc(-c2ccc(-c3cn(C4CCCCC4)c4[n+]3CCCCC4)cc2)cc1 [Imidazolium 53]
IC50 (NIH-3T3 cells): 170 nM

ALDH1A3 inhibition / isoform selectivity (in words) (ALDH1A3): ALDH1A3-specific inhibitor
Structure (SMILES): CCOc1ccc(-n2cc(-c3ccc(-c4ccc(C(=O)OC)cc4)cc3)[n+]3c2CCCCC3)cc1 [Imidazolium 46]
